How the values were obtained:
MKN45 cells = assay: MKN45 cell proliferation assay (Cell-Titer-Glo, 120 h); type: cell-based; conditions: for EC50: Homo sapiens, MKN-45, 120 h, Cell-Titer-Glo, read-out: MKN45 Cell Prolif. 120 hr (EC50); for MKN45 Cell Prolif. 120 hr (Ymin-Obs): minimal percent of DMSO control observed in the concentrations tested
Procedure: MKN45 cells were obtained from Celgene internal cell banks and cultured in RPMI complete media (RPMI-1640, 1× Penicillin/Streptomycin, 1× glutamine, 1× Sodium Pyruvate, Non-essential Amino Acids, 10% Fetal Bovine serum, all component from Thermo-Fisher). Compounds were dispensed into 384-well plates using an HP DE300 compound printer in triplicate with 8 compounds on each plate. For each compound, a 10-point dose response was printed at half-log dilutions starting at either 1 uM or 10 uM. The DMSO concentration was kept constant for a final assay concentration of 0.1% per well assuming 50 ul final media volume. Compound plates were sealed and frozen at −20 C until use.
For each assay batch, compound plates were thawed and allowed to reach room temperature, and cells were seeded at 400 cells per well in 50 ul complete RPMI media. After 120 hours of incubation at 37 C and 5% CO2, cells were lysed by addition of 25 μL of Cell-Titer-Glo Reagent (Promega Corporation, Madison, WI), as per manufacturer's instructions, protected from light, shaken for 45 minutes, and total luminescence read by a Perkin Elmer Envision plate reader. Total luminescence signal is linearly correlated with cell number remaining in the well.
Luminescence data was processed per plate by subtracting reagent-only “blank” well luminescence from all measured values and calculating a percent of DMSO control value for each treatment well. Then, to determine the half-maximal effective concentration (EC50) values for cell growth inhibition, a four parameter logistic model was fit to the data for each DMSO-normalized compound: Sigmoidal Dose-Response Model: (FIT=(A+((B−A)/1+((C/x)^D)))) where C is the inflection point (EC50), D is the Hill slope, and A and B are the low and high limits of the fit respectively. The lower limit of the fit (value A) is referred to as Ymin-calculated. The minimal percent of DMSO control that is observed in the concentrations tested for each compound is labeled as “Ymin-obs”, and was recorded and reported in the tables. Sigmoidal fit curves were processed and evaluated using Activity Base (IDBS, Alameda, CA).

WEE1 = target: T1, WEE1 (Homo sapiens, UniProt P30291+Q96SW2); assay: WEE1-ePL degradation assay (LentiX-WEE1-ePL-GSPT1-ND cells, InCELL Hunter luminescence, 4 h); type: cell-based; conditions: 293T-LentiX WEE1-ePL cells; for DC50: read-out: 293T-LentiX WEE1-ePL Degradation 4 hr (EC50)
T1 construct: C-terminal ePL-tagged (DiscoverX, Fremont, CA) full-length WEE1 expression construct; expressed in transfected cells; host or cells: LentiX-HEK293T (Invitrogen), lentiviral transduction; co-expressing GSPT1-GN (G576N, lacking the first 158 amino acids)
Procedure: To generate LentiX-WEE1-ePL-GSPT1-ND cells for the WEE1 degradation assay, LentiX-HEK293T (Invitrogen) were transduced by lentivirus with a C-terminal ePL-tagged (DiscoverX, Fremont, CA) full-length WEE1 expression construct. […] Cells were selected and maintained in complete DMEM media (DMEM, 10% Heat Inactivated FBS, 400 μg/mL Geneticin, and 1 μg/mL puromycin at 37 C and 5% CO2). Cells were passaged every 3-4 days by reseeding 1×10^6 cells in a T150 flask.
Cells were dispensed into 384-well white plates (Corning #3570, NY) that were pre-spotted with compounds using an acoustic dispenser (Echo acoustic transfer system, Beckman Coulter Life Sciences, Carlsbad, CA) as a 10-point dose-response curve with a 3-fold dilution starting at either 1 uM or 10 uM and including a DMSO control. Twenty-five microliters of media containing 2500 cells for LentiX-oeWEE1-ePL was dispensed per well. Assay plates were incubated at 37° C. with 5% CO2 for four hours (WEE1) After incubation, 25 μL of the InCELL Hunter™ Detection Reagent Working Solution (DiscoverX, Fremont, CA) was added to each well and incubated at room temperature for 30 minutes protected from light. After 30 minutes, luminescence was read on a PHERAstar luminometer (Cary, NC).
To determine the half-maximal effective concentration (EC50) values for WEE1-ePL degradation, a four parameter logistic model was used: (Sigmoidal Dose-Response Model) (FIT=(A+((B−A)/1+((C/x)^D)))) where C is the inflection point (EC50), D is the Hill slope, and A and B are the low and high limits of the fit respectively). The lower limit of the fit (value A) is referred to as Ymin. […] The maximum limit constraint, Ymax, is similarly derived using DMSO control. The curves were processed and evaluated using Activity Base (IDBS, Alameda, CA).

[1] = lower limit of the fit (0 = luciferase inhibitor, Ymax = DMSO control)
[2] = lower limit of the fit (Ymin=0 luciferase inhibitor, Ymax DMSO control)

SMILES | EC50 (MKN45 cells) | MKN45 Cell Prolif. 120 hr (Ymin-Obs) (MKN45 cells) | 293T-LentiX WEE1-ePL Degradation 4 hr (Ymin) (WEE1; [1]) | other results
COC[C@@H]1CCC[C@H]1c1ccc2cc(CN3CC[C@H](Oc4ccc5c(c4)CN(C4CCC(=O)NC4=O)C5=O)C3)ccc2n1 (stereo partly drawn) [3-(5-{[(3S)-1-({2-[(1R,2R)-2-(methoxymethyl)cyclopentyl]quinolin-6-yl}methyl)pyrrolidin-3-yl]oxy}-1-oxo-2,3-dihydro-1H-isoindol-2-yl)piperidine-2,6-dione] | 16.6 nM | 12.33 |  | 
COC[C@H]1CCC[C@H]1c1ccc2cc(CN3CC[C@H](Oc4ccc5c(c4)CN(C4CCC(=O)NC4=O)C5=O)C3)ccc2n1 (stereo partly drawn) [3-(5-{[(3S)-1-({2-[(1R,2S)-2-(methoxymethyl)cyclopentyl]quinolin-6-yl}methyl)pyrrolidin-3-yl]oxy}-1-oxo-2,3-dihydro-1H-isoindol-2-yl)piperidine-2,6-dione] | 12.3 nM | 15.33 |  | 
NCc1cccc(COc2ccccc2CN2CC[C@H](Oc3ccc4c(c3)CN(C3CCC(=O)NC3=O)C4=O)C2)c1 (stereo partly drawn) [3-(5-{[(3S)-1-[(2-{[3-(aminomethyl)phenyl]methoxy}phenyl)methyl]pyrrolidin-3-yl]oxy}-1-oxo-2,3-dihydro-1H-isoindol-2-yl)piperidine-2,6-dione] |  |  | 87.63 | 
NCc1ccc(COc2ccccc2CN2CC[C@H](Oc3ccc4c(c3)CN(C3CCC(=O)NC3=O)C4=O)C2)cc1 (stereo partly drawn) [3-(5-{[(3S)-1-[(2-{[4-(aminomethyl)phenyl]methoxy}phenyl)methyl]pyrrolidin-3-yl]oxy}-1-oxo-2,3-dihydro-1H-isoindol-2-yl)piperidine-2,6-dione] |  |  | 88.71 | 
NCc1ccccc1COc1cccc(CN2CC[C@H](Oc3ccc4c(c3)CN(C3CCC(=O)NC3=O)C4=O)C2)c1 (stereo partly drawn) [3-(5-{[(3S)-1-[(3-{[2-(aminomethyl)phenyl]methoxy}phenyl)methyl]pyrrolidin-3-yl]oxy}-1-oxo-2,3-dihydro-1H-isoindol-2-yl)piperidine-2,6-dione] |  |  | 74.31 | 
NCc1cccc(COc2cccc(CN3CC[C@H](Oc4ccc5c(c4)CN(C4CCC(=O)NC4=O)C5=O)C3)c2)c1 (stereo partly drawn) [3-(5-{[(3S)-1-[(3-{[3-(aminomethyl)phenyl]methoxy}phenyl)methyl]pyrrolidin-3-yl]oxy}-1-oxo-2,3-dihydro-1H-isoindol-2-yl)piperidine-2,6-dione] |  |  | 81.05 | 
NCc1ccc(COc2cccc(CN3CC[C@H](Oc4ccc5c(c4)CN(C4CCC(=O)NC4=O)C5=O)C3)c2)cc1 (stereo partly drawn) [3-(5-{[(3S)-1-[(3-{[4-(aminomethyl)phenyl]methoxy}phenyl)methyl]pyrrolidin-3-yl]oxy}-1-oxo-2,3-dihydro-1H-isoindol-2-yl)piperidine-2,6-dione] |  |  | 87 | 
O=C1CCC(N2Cc3cc(O[C@H]4CCN(Cc5ccc6nc(C7CCOCC7)ccc6c5)C4=O)ccc3C2=O)C(=O)N1 (stereo partly drawn) [3-(5-{[(3S)-1-{[2-(oxan-4-yl)quinolin-6-yl]methyl}-2-oxopyrrolidin-3-yl]oxy}-1-oxo-2,3-dihydro-1H-isoindol-2-yl)piperidine-2,6-dione] |  |  |  | 293T-LentiX WEE1-ePL Degradation 4 hr (Ymin) (WEE1; [2]): 80.98
O=C1CCC(N2Cc3cc(O[C@H]4CCN(Cc5cccc(OC(F)F)c5)C4)ccc3C2=O)C(=O)N1 (stereo partly drawn) [3-(5-{[(3S)-1-{[3-(difluoromethoxy)phenyl]methyl}pyrrolidin-3-yl]oxy}-1-oxo-2,3-dihydro-1H-isoindol-2-yl)piperidine-2,6-dione] |  |  | 75.96 | DC50 (WEE1): 196 nM
O=C1CCC(N2Cc3ccc(O[C@H]4CCN(Cc5ccc6cnccc6c5)C4)cc3C2=O)C(=O)N1 (stereo partly drawn) [3-(6-{[(3S)-1-[(isoquinolin-6-yl)methyl]pyrrolidin-3-yl]oxy}-1-oxo-2,3-dihydro-1H-isoindol-2-yl)piperidine-2,6-dione] |  |  | 80.095 | 
O=C1CC[C@H](N2Cc3cc(O[C@@H]4CN(Cc5ccc6nc(N7CCOCC7)ncc6c5)CC4(F)F)ccc3C2=O)C(=O)N1 [(3S)-3-(5-{[(3R)-4,4-difluoro-1-{[2-(morpholin-4-yl)quinazolin-6-yl]methyl}pyrrolidin-3-yl]oxy}-1-oxo-2,3-dihydro-1H-isoindol-2-yl)piperidine-2,6-dione] | 17.8 nM | 10.03 |  | 
O=C1CC[C@H](N2Cc3cc(O[C@H]4CCN(Cc5ccc6nc(C7CCOCC7)ccc6c5Cl)C4)ccc3C2=O)C(=O)N1 [(3S)-3-(5-{[(3S)-1-{[5-chloro-2-(oxan-4-yl)quinolin-6-yl]methyl}pyrrolidin-3-yl]oxy}-1-oxo-2,3-dihydro-1H-isoindol-2-yl)piperidine-2,6-dione] |  |  |  | 293T-LentiX WEE1-ePL Degradation 4 hr (Ymin) (WEE1; [2]): 28.82; DC50 (WEE1): 2.8 nM
O=C1CC[C@H](N2Cc3cc(O[C@H]4CCN(Cc5ccc6nc(N7CCOCC7)ncc6c5F)C4)ccc3C2=O)C(=O)N1 [(3S)-3-(5-{[(3S)-1-{[5-fluoro-2-(morpholin-4-yl)quinazolin-6-yl]methyl}pyrrolidin-3-yl]oxy}-1-oxo-2,3-dihydro-1H-isoindol-2-yl)piperidine-2,6-dione] |  |  |  | 293T-LentiX WEE1-ePL Degradation 4 hr (Ymin) (WEE1; [2]): 32.24; DC50 (WEE1): 3.27 nM
O=C1CC[C@H](N2Cc3cc(O[C@H]4CCN(Cc5ccc6nc(C7CCOCC7)ncc6c5F)C4)ccc3C2=O)C(=O)N1 [(3S)-3-(5-{[(3S)-1-{[5-fluoro-2-(oxan-4-yl)quinazolin-6-yl]methyl}pyrrolidin-3-yl]oxy}-1-oxo-2,3-dihydro-1H-isoindol-2-yl)piperidine-2,6-dione] | 17.1 nM | 9.88 |  | 
O=C1CC[C@H](N2Cc3cc(O[C@H]4CCN(Cc5cc6ccc(C7CCOCC7)nc6cc5F)C4)ccc3C2=O)C(=O)N1 [(3S)-3-(5-{[(3S)-1-{[7-fluoro-2-(oxan-4-yl)quinolin-6-yl]methyl}pyrrolidin-3-yl]oxy}-1-oxo-2,3-dihydro-1H-isoindol-2-yl)piperidine-2,6-dione] |  |  |  | 293T-LentiX WEE1-ePL Degradation 4 hr (Ymin) (WEE1; [2]): 29.77; DC50 (WEE1): 5.82 nM
O=C1CC[C@H](N2Cc3cc(O[C@H]4CCN(Cc5cc(F)c6nc(N7CCOCC7)ccc6c5)C4)ccc3C2=O)C(=O)N1 [(3S)-3-(5-{[(3S)-1-{[8-fluoro-2-(morpholin-4-yl)quinolin-6-yl]methyl}pyrrolidin-3-yl]oxy}-1-oxo-2,3-dihydro-1H-isoindol-2-yl)piperidine-2,6-dione] | 7.19 nM | 12.7 |  | 
COC[C@@H]1CN(Cc2ccc3nc(C4CCOCC4)ccc3c2)C[C@H]1Oc1ccc2c(c1)CN([C@H]1CCC(=O)NC1=O)C2=O [(3S)-3-(5-{[(3S,4S)-4-(methoxymethyl)-1-{[2-(oxan-4-yl)quinolin-6-yl]methyl}pyrrolidin-3-yl]oxy}-1-oxo-2,3-dihydro-1H-isoindol-2-yl)piperidine-2,6-dione] | 0.728 nM | 9.194 |  | 
C[C@H]1c2cc(O[C@H]3CCN(Cc4ccc5nc(N6CCOCC6)ncc5c4)C3)ccc2C(=O)N1[C@H]1CCC(=O)NC1=O [(3S)-3-[(3S)-3-methyl-5-{[(3S)-1-{[2-(morpholin-4-yl)quinazolin-6-yl]methyl}pyrrolidin-3-yl]oxy}-1-oxo-2,3-dihydro-1H-isoindol-2-yl]piperidine-2,6-dione] |  |  |  | 293T-LentiX WEE1-ePL Degradation 4 hr (Ymin) (WEE1; [2]): 37.95; DC50 (WEE1): 1180 nM

Source: US20240067632A1, “WEE1 Degrading Compounds and Uses Thereof” (Bristol-Myers Squibb Company, priority 2022, published 2024)
